Test results: US20260022142A1, “MACROCYCLIC IMMUNOMODULATORS” (Bristol-Myers Squibb Company, priority 2022, published 2026)
Bridge positions count the residues as written; N and C are the ends. Square brackets hold non-standard residues; d marks the D form. Peptide text beside a SMILES is read from it. * marks the point of attachment. ξ: configuration not given here. Phe(3,4,5-F3) = N[C@@H](Cc1cc(F)c(F)c(F)c1)C(=O)O; Phe(4-COOH) = N[C@@H](Cc1ccc(C(=O)O)cc1)C(=O)O; Bip = N[C@@H](Cc1ccc(-c2ccccc2)cc1)C(=O)O; Phe(3-Me) = Cc1cccc(C[C@H](N)C(=O)O)c1; Val(3-OH) = CC(C)(O)[C@H](N)C(=O)O; NMeR = CN[C@@H](CCCNC(=N)N)C(=O)O; 4Pal = N[C@@H](Cc1ccncc1)C(=O)O; Cha = N[C@@H](CC1CCCCC1)C(=O)O; Cit = NC(=O)NCCC[C@H](N)C(=O)O; Thr(3ξ) = CC(O)[C@H](N)C(=O)O; Carboxymethyl = O=C(O)C*; Orn = NCCC[C@H](N)C(=O)O; Aun = NCCCCCCCCCCC(=O)O; Dab = NCC[C@H](N)C(=O)O; Dap = NC[C@H](N)C(=O)O; AEEA = NCCOCCOCC(=O)O; Ac3c = NC1(C(=O)O)CC1

What follows are compounds tested against T1, PD-1/PD-L1 interaction (PE-labeled human PD-L1-Ig binding to Jurkat cell line over-expressing human PD-1) (Homo sapiens, UniProt Q15116) (assay: Jurkat-PD-1 Cell Binding High-Content Screening Assay (CBA)). Conditions: Jurkat cell line over-expressing human PD-1; PE-labeled PD-L1-Ig 20 nM final; read-out: Jurkat hPD1-PDL1 IC50.
T1 construct: expressed in transfected cells; host or cells: Jurkat
Format: cell-based
Outline: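 Binding of fluorescent PD-L1-Ig (20 nM final) to Jurkat-PD-1 cells was measured by automated imaging after 1 h, following a 2 h compound pre-treatment at 37° C.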

T1 sequence (Q15116 25-288): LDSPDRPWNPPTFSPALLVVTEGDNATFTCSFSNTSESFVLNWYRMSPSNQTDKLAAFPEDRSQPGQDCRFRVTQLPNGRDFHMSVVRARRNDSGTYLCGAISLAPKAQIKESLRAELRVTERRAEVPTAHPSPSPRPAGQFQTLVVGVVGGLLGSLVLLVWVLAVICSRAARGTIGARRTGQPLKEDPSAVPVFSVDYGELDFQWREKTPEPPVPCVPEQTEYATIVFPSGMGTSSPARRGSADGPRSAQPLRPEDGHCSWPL

Row | Structure (SMILES) | IC50
1 | Cc1cccc(C[C@@H]2NC(=O)[C@H](CC(=O)O)NC(=O)[C@H](Cc3ccc(OCC(=O)O)cc3)NC(=O)[C@H](CCCNC(=N)N)N(C)C(=O)CSC[C@@H](C(=O)N[C@@H](CCN)C(=O)NCCCCCCCCCCC(=O)O)NC(=O)[C@H](C(C)O)NC(=O)[C@H](C(C)C)NC(=O)[C@H](CC3CCCCC3)NC(=O)[C@H](CCN)NC(=O)[C@@H](CC(C)C)NC(=O)[C@H](CCCN)NC(=O)[C@H](CCCNC(N)=O)NC(=O)[C@H](Cc3ccc(-c4ccccc4)cc3)NC(=O)[C@H](C(C)C)NC2=O)c1 (stereo partly drawn) [Compound 3562] ({CH2CO}-[NMeR]Y(Carboxymethyl)D[Phe(3-Me)]V[Bip][Cit][Orn][dL][Dab][Cha]V[Thr(3ξ)]C[Dab][Aun]-OH; thioether N-14) | 28.4 nM
2 | Cc1cccc(C[C@@H]2NC(=O)[C@H](CC(=O)O)NC(=O)[C@H](Cc3ccc(OCC(=O)O)cc3)NC(=O)[C@H](C(C)O)NC(=O)CSC[C@@H](C(=O)N[C@@H](CCN)C(=O)NCCCCCCCCCCC(=O)O)NC(=O)[C@H](C(C)O)NC(=O)[C@H](C(C)C)NC(=O)[C@H](CC3CCCCC3)NC(=O)[C@H](CCN)NC(=O)[C@@H](CC(C)C)NC(=O)[C@H](CCCNC(N)=O)NC(=O)[C@H](Cc3ccc(OCC(=O)O)cc3)NC(=O)[C@H](Cc3ccc(-c4ccccc4)cc3)NC(=O)[C@H](C(C)C)NC2=O)c1 (stereo partly drawn) [Compound 3451] ({CH2CO}-[Thr(3ξ)]Y(Carboxymethyl)D[Phe(3-Me)]V[Bip]Y(Carboxymethyl)[Cit][dL][Dab][Cha]V[Thr(3ξ)]C[Dab][Aun]-OH; thioether N-14) | 18.4 nM
3 | Cc1cccc(C[C@@H]2NC(=O)[C@H](CC(=O)O)NC(=O)[C@H](Cc3ccc(C(=O)O)cc3)NC(=O)[C@H](Cc3ccncc3)NC(=O)CSC[C@@H](C(=O)NC3(C(=O)NCCCCCCCCCCC(=O)O)CC3)NC(=O)[C@H]([C@@H](C)O)NC(=O)[C@H](C(C)C)NC(=O)[C@H](CC(C)C)NC(=O)[C@H](CCN)NC(=O)[C@@H](CC(C)C)NC(=O)[C@H](CCCN)NC(=O)[C@H](Cc3ccc(OCC(=O)O)cc3)NC(=O)[C@H](Cc3ccc(-c4ccccc4)cc3)NC(=O)[C@H](Cc3ccc(OCC(=O)O)cc3)NC2=O)c1 [Compound 2168] ({CH2CO}-[4Pal][Phe(4-COOH)]D[Phe(3-Me)]Y(Carboxymethyl)[Bip]Y(Carboxymethyl)[Orn][dL][Dab]LVTC[Ac3c][Aun]-OH; thioether N-14) | 26.7 nM
4 | Cc1cccc(C[C@@H]2NC(=O)[C@H](CC(=O)O)NC(=O)[C@H](Cc3ccc(OCC(=O)O)cc3)NC(=O)[C@H](Cc3ccncc3)NC(=O)CSC[C@@H](C(=O)N[C@@H](CCN)C(=O)NCCCCCCCCCCC(=O)O)NC(=O)[C@H](CCCN)NC(=O)[C@H](C(C)C)NC(=O)[C@H](CC3CCCCC3)NC(=O)[C@H](CCN)NC(=O)[C@@H](CC(C)C)NC(=O)[C@H](CCCN)NC(=O)[C@H](Cc3ccc(O)cc3)NC(=O)[C@H](Cc3ccc(-c4ccccc4)cc3)NC(=O)[C@H](C(C)C)NC2=O)c1 [Compound 2706] ({CH2CO}-[4Pal]Y(Carboxymethyl)D[Phe(3-Me)]V[Bip]Y[Orn][dL][Dab][Cha]V[Orn]C[Dab][Aun]-OH; thioether N-14) | 18.4 nM
5 | Cc1cccc(C[C@@H]2NC(=O)[C@H](CC(=O)O)NC(=O)[C@H](Cc3ccc(OCC(=O)O)cc3)NC(=O)[C@H](CCCNC(=N)N)NC(=O)CSC[C@@H](C(=O)NCCOCCOCC(=O)NCCCCCCCCCCC(=O)O)NC(=O)[C@H](C(C)O)NC(=O)[C@H](C(C)C)NC(=O)[C@H](CC3CCCCC3)NC(=O)[C@H](CCN)NC(=O)[C@@H](CC(C)C)NC(=O)[C@H](CCCN)NC(=O)[C@H](Cc3ccc(OCC(=O)O)cc3)NC(=O)[C@H](Cc3ccc(-c4ccccc4)cc3)NC(=O)[C@H](Cc3ccc(C(=O)O)cc3)NC2=O)c1 (stereo partly drawn) [Compound 3479] ({CH2CO}-RY(Carboxymethyl)D[Phe(3-Me)][Phe(4-COOH)][Bip]Y(Carboxymethyl)[Orn][dL][Dab][Cha]V[Thr(3ξ)]C[AEEA][Aun]-OH; thioether N-14) | 59.6 nM
6 | Cc1cccc(C[C@@H]2NC(=O)[C@H](CC(=O)O)NC(=O)[C@H](Cc3ccc(OCC(=O)O)cc3)NC(=O)[C@H](Cc3ccncc3)NC(=O)CSC[C@@H](C(=O)N[C@@H](CCN)C(=O)NCCCCCCCCCCC(=O)O)NC(=O)[C@H](CO)NC(=O)[C@H](C(C)(C)O)NC(=O)[C@H](CC3CCCCC3)NC(=O)[C@H](CCN)NC(=O)[C@@H](CC(C)C)NC(=O)[C@H](CCCN)NC(=O)[C@H](Cc3cc(F)c(F)c(F)c3)NC(=O)[C@H](Cc3ccc(-c4ccccc4)cc3)NC(=O)[C@H](Cc3ccc(OCC(=O)O)cc3)NC2=O)c1 [Compound 2203] ({CH2CO}-[4Pal]Y(Carboxymethyl)D[Phe(3-Me)]Y(Carboxymethyl)[Bip][Phe(3,4,5-F3)][Orn][dL][Dab][Cha][Val(3-OH)]SC[Dab][Aun]-OH; thioether N-14) | 41.7 nM
7 | CC(C)C[C@@H]1NC(=O)[C@H](Cc2c[nH]c3ccccc23)NC(=O)[C@H](CC(=O)O)NC(=O)[C@H](Cc2ccc(OCC(=O)O)cc2)NC(=O)[C@H](CN)NC(=O)CSC[C@@H](C(=O)N[C@@H](CCN)C(=O)NCCCCCCCCCCC(=O)O)NC(=O)[C@H](Cc2cnc[nH]2)NC(=O)[C@H](C(C)C)NC(=O)[C@H](CC2CCCCC2)NC(=O)[C@H](CCN)NC(=O)[C@@H](CC(C)C)NC(=O)[C@H](CCCN)NC(=O)[C@H](C(C)C)NC(=O)[C@H](Cc2ccc(-c3ccccc3)cc2)NC1=O [Compound 3688] ({CH2CO}-[Dap]Y(Carboxymethyl)DWL[Bip]V[Orn][dL][Dab][Cha]VHC[Dab][Aun]-OH; thioether N-14) | 17.3 nM

Now those with a lower IC50, led by results:

Row | IC50 | Structure (SMILES)
8 | 12.9 nM | Cc1cccc(C[C@@H]2NC(=O)[C@H](CC(=O)O)NC(=O)[C@H](Cc3ccc(OCC(=O)O)cc3)NC(=O)[C@H](CCCNC(=N)N)NC(=O)CSC[C@@H](C(=O)NC3(C(=O)NCCCCCCCCCCC(=O)O)CC3)NC(=O)[C@H]([C@@H](C)O)NC(=O)[C@H](C(C)C)NC(=O)[C@H](CC3CCCCC3)NC(=O)[C@H](CCN)NC(=O)[C@@H](CC(C)C)NC(=O)[C@H](CCCNC(N)=O)NC(=O)[C@H](Cc3ccc(OCC(=O)O)cc3)NC(=O)[C@H](Cc3ccc(-c4ccccc4)cc3)NC(=O)[C@H](Cc3ccc(OCC(=O)O)cc3)NC2=O)c1 [Compound 2162] ({CH2CO}-RY(Carboxymethyl)D[Phe(3-Me)]Y(Carboxymethyl)[Bip]Y(Carboxymethyl)[Cit][dL][Dab][Cha]VTC[Ac3c][Aun]-OH; thioether N-14)
9 | 12 nM | Cc1cccc(C[C@@H]2NC(=O)[C@H](CC(=O)O)NC(=O)[C@H](Cc3ccc(OCC(=O)O)cc3)NC(=O)[C@H](C(C)O)NC(=O)CSC[C@@H](C(=O)N[C@@H](C)C(=O)N[C@@H](CCN)C(=O)NCCCCCCCCCCC(=O)O)NC(=O)[C@H](C(C)O)NC(=O)[C@H](C(C)C)NC(=O)[C@H](CC3CCCCC3)NC(=O)[C@H](CCN)NC(=O)[C@@H](CC(C)C)NC(=O)[C@H](CCCN)NC(=O)[C@H](C(C)C)NC(=O)[C@H](Cc3ccc(-c4ccccc4)cc3)NC(=O)[C@H](C(C)C)NC2=O)c1 (stereo partly drawn) [Compound 3020] ({CH2CO}-[Thr(3ξ)]Y(Carboxymethyl)D[Phe(3-Me)]V[Bip]V[Orn][dL][Dab][Cha]V[Thr(3ξ)]CA[Dab][Aun]-OH; thioether N-14)
10 | 10.8 nM | CC(C)C[C@H]1NC(=O)[C@H](CCCN)NC(=O)[C@H](C(C)C)NC(=O)[C@H](Cc2ccc(-c3ccccc3)cc2)NC(=O)[C@H](C(C)C)NC(=O)[C@H](Cc2c[nH]c3ccccc23)NC(=O)[C@H](CC(=O)O)NC(=O)[C@H](Cc2ccc(OCC(=O)O)cc2)NC(=O)[C@H](CCCNC(=N)N)NC(=O)CSC[C@@H](C(=O)N[C@@H](CCN)C(=O)NCCCCCCCCCCC(=O)O)NC(=O)[C@H](CN)NC(=O)[C@H](C(C)C)NC(=O)[C@H](CC2CCCCC2)NC(=O)[C@H](CCN)NC1=O [Compound 3287] ({CH2CO}-RY(Carboxymethyl)DWV[Bip]V[Orn][dL][Dab][Cha]V[Dap]C[Dab][Aun]-OH; thioether N-14)
11 | 10.2 nM | Cc1cccc(C[C@@H]2NC(=O)[C@H](CC(=O)O)NC(=O)[C@H](Cc3ccc(OCC(=O)O)cc3)NC(=O)[C@H](CN)NC(=O)CSC[C@@H](C(=O)N[C@@H](CCN)C(=O)NCCOCCOCC(=O)NCCCCCCCCCCC(=O)O)NC(=O)[C@H](C(C)O)NC(=O)[C@H](C(C)C)NC(=O)[C@H](CC3CCCCC3)NC(=O)[C@H](CCN)NC(=O)[C@@H](CC(C)C)NC(=O)[C@H](CCCN)NC(=O)[C@H](Cc3ccc(O)cc3)NC(=O)[C@H](Cc3ccc(-c4ccccc4)cc3)NC(=O)[C@H](Cc3ccc(O)cc3)NC2=O)c1 (stereo partly drawn) [Compound 2575] ({CH2CO}-[Dap]Y(Carboxymethyl)D[Phe(3-Me)]Y[Bip]Y[Orn][dL][Dab][Cha]V[Thr(3ξ)]C[Dab][AEEA][Aun]-OH; thioether N-14)
12 | 10 nM | CC(C)C[C@H]1NC(=O)[C@H](CCCN)NC(=O)[C@H](C(C)C)NC(=O)[C@H](Cc2ccc(-c3ccccc3)cc2)NC(=O)[C@H](C(C)C)NC(=O)[C@H](Cc2c[nH]c3ccccc23)NC(=O)[C@H](CC(=O)O)NC(=O)[C@H](Cc2ccc(OCC(=O)O)cc2)NC(=O)[C@H](Cc2ccc(OCC(=O)O)cc2)NC(=O)CSC[C@@H](C(=O)NCCOCCOCC(=O)NCCCCCCCCCCC(=O)O)NC(=O)[C@H](CCCNC(=N)N)NC(=O)[C@H](C(C)C)NC(=O)[C@H](CC2CCCCC2)NC(=O)[C@H](CCN)NC1=O [Compound 2564] ({CH2CO}-Y(Carboxymethyl)Y(Carboxymethyl)DWV[Bip]V[Orn][dL][Dab][Cha]VRC[AEEA][Aun]-OH; thioether N-14)
13 | 7.4 nM | CC(=O)NCCCC[C@@H]1NC(=O)[C@H](C(C)C)NC(=O)[C@H](CC2CCCCC2)NC(=O)[C@H](CCN)NC(=O)[C@@H](CC(C)C)NC(=O)[C@H](CCCN)NC(=O)[C@H](C(C)C)NC(=O)[C@H](Cc2ccc(-c3ccccc3)cc2)NC(=O)[C@H](C(C)C)NC(=O)[C@H](Cc2c[nH]c3ccccc23)NC(=O)[C@H](CC(=O)O)NC(=O)[C@H](Cc2ccc(OCC(=O)O)cc2)NC(=O)[C@H](CCCNC(=N)N)NC(=O)CSC[C@@H](C(=O)NCCOCCOCC(=O)NCCCCCCCCCCC(=O)O)NC1=O [Compound 3341] ({CH2CO}-RY(Carboxymethyl)DWV[Bip]V[Orn][dL][Dab][Cha]VK(Ac)C[AEEA][Aun]-OH; thioether N-14)
